This note sets out measurements from ChEMBL document CHEMBL4118288, “Antiplasmodial activity of hydroxyethylamine analogs: Synthesis, biological activity and structure activity relationship of plasmepsin inhibitors” (Bioorg Med Chem, 2018).

One series deals with Plasmodium falciparum. In words: Antiplasmodial activity against chloroquine-susceptible blood forms of Plasmodium falciparum 3D7 infected in human erythrocytes measured after 48 hrs by SYBR green1 staining based fluorescence assay. The class given is functional, organism-based. The conditions noted are these: 3D7, 48 h.
Series [1] deals with Plasmepsin 4 (Plasmodium falciparum) (UniProt Q17SB2). In words: Inhibition of Plasmodium falciparum Plm4 at 10 uM using synthetic substrate pretreated for 5 mins followed by substrate addition measured immediately by spectrophotometric method relative to control.
Chain of Plasmepsin 4 (Plasmodium falciparum) (Q17SB2 1-448): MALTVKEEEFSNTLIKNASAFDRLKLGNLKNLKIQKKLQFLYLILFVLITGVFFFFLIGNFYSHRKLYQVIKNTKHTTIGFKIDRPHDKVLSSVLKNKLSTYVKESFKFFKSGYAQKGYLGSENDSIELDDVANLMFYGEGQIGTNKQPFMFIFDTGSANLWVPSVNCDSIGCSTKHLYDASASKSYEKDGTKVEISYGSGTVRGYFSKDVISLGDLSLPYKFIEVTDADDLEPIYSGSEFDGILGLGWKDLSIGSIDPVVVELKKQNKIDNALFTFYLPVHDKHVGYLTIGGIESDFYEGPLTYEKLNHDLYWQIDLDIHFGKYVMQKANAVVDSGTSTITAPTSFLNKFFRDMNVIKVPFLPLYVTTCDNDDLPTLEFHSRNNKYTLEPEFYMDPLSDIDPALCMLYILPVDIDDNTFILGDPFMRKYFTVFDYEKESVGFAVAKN
Series [2] is described as follows: Therapeutic index, ratio of IC50 for African green monkey Vero cells to IC50 for chloroquine-susceptible blood forms of Plasmodium falciparum 3D7 infected in human erythrocytes. The class given is toxicity, cell-based. The conditions noted are these: read-out: Ratio IC50.
Another series has as its system HepG2. In words: Cytotoxicity against human HepG2 cells after 48 hrs by MTT assay. The class given is cell-based. The conditions noted are these: HepG2, 48 h. A general note: Formazan colour is commonly taken as a measure of viable cells.
For series [3], the target named is Plasmepsin II (Plasmodium falciparum) (UniProt P46925). Put plainly: Inhibition of Plasmodium falciparum Plm2 at 10 uM using synthetic substrate pretreated for 5 mins followed by substrate addition measured immediately by spectrophotometric method relative to control.
Chain of Plasmepsin II (Plasmodium falciparum) (P46925 125-453 limits assumed): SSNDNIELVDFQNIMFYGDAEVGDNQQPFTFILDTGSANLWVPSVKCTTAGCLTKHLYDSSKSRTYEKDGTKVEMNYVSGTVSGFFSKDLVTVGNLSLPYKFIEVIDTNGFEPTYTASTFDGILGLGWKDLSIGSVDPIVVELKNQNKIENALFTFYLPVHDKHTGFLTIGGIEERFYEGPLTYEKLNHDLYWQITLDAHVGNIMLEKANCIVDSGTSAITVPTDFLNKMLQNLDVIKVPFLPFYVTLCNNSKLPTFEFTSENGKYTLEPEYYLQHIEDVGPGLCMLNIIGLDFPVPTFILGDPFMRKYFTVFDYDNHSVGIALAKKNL
A further series deals with Plasmepsin II (Plasmodium falciparum, UniProt P46925). In words: (§1) Inhibition of Plasmodium falciparum Plm2 using synthetic substrate pretreated for 5 mins followed by substrate addition measured immediately by spectrophotometric method.
Chain of Plasmepsin II (P46925 whole entry): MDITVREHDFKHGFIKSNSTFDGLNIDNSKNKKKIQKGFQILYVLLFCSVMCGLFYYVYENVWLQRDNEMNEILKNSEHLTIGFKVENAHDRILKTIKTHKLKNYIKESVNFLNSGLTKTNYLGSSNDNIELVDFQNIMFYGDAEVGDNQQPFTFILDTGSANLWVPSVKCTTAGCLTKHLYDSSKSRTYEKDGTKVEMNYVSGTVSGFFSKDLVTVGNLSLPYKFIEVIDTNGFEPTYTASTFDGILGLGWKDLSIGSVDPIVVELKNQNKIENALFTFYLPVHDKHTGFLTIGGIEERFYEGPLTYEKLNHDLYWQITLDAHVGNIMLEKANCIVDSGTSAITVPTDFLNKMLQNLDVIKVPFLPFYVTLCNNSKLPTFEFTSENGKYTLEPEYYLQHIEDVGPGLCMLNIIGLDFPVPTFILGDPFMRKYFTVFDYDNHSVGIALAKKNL
Series [4] concerns the target Plasmepsin II (Plasmodium falciparum) (UniProt P46925). Described as §1.
Series [5] is described as follows: Therapeutic index, ratio of IC50 for human HepG2 cells to IC50 for chloroquine-susceptible blood forms of Plasmodium falciparum 3D7 infected in human erythrocytes. The conditions noted are these: read-out: Ratio IC50. The class given is toxicity, cell-based.
For the next series, the target named is Plasmepsin 4 (Plasmodium falciparum, UniProt Q17SB2). Put plainly: (§2) Inhibition of Plasmodium falciparum Plm4 using synthetic substrate pretreated for 5 mins followed by substrate addition measured immediately by spectrophotometric method.
Chain of Plasmepsin 4 (Q17SB2 whole entry): as the sequence (Q17SB2 1-448) above
The target of series [6] is Plasmepsin 4 (Plasmodium falciparum) (UniProt Q17SB2). Described as §2.
The next series concerns Vero. Put plainly: Cytotoxicity against African green monkey Vero cells after 48 hrs by MTT assay. The class given is cell-based. The conditions noted are these: Chlorocebus sabaeus.

As usually defined, the IC50 is the concentration that inhibits the measured activity by half. In general, inhibition refers to the relative decrease from the control value, in per cent. In general, Ki refers to a dissociation constant, usually derived from enzyme kinetics or from competition with a known ligand.

Turning to `CC[C@H](C)[C@H](NC(=O)OC(C)(C)C)C(=O)N[C@@H](Cc1ccccc1)[C@H](O)CN1CCN(C[C@@H](O)[C@H](Cc2ccccc2)NC(=O)[C@@H](NC(=O)OC(C)(C)C)[C@@H](C)CC)CC1`, half-maximal inhibition with Plasmodium falciparum (IC50) required 1.84 µM.

In the series with Plasmodium falciparum, `C[C@H](NC(=O)OC(C)(C)C)C(=O)N[C@@H](Cc1ccccc1)[C@H](O)CN1CCN(C[C@H](O)[C@@H](Cc2ccccc2)NC(=O)[C@H](C)NC(=O)OC(C)(C)C)CC1` showed a half-maximal inhibitory concentration (IC50) of 8.28 µM.

On to `Cc1ccc2c(c1)C(=O)N([C@@H](CC(C)C)C(=O)NC(Cc1ccccc1)C(O)CN1CCN(C[C@@H](O)[C@H](Cc3ccccc3)NC(=O)[C@H](CC(C)C)N3C(=O)c4ccc(C)cc4C3=O)CC1)C2=O` (single isomer, unassigned), for which the half-inhibitory concentration (IC50) worked out at 2.27 µM in the series on Plasmodium falciparum, 27 µM in the series with HepG2 and 60 µM with Vero. For the same molecule, the inhibition in series [1] was over 50%; in [3], over 50%; in series [4], “Dose-dependent effect”; in [6], “Dose-dependent effect”. Further, the selectivity ratio in [2] and in [5] was over 10 each time. Further, the values for the Ki on Plasmepsin II and at Plasmepsin 4 were 1.92 µM and 1.98 µM, respectively.

In the series with Plasmodium falciparum, `CC[C@H](C)[C@@H](C(=O)N[C@@H](Cc1ccccc1)[C@H](O)CN1CCN(C[C@@H](O)[C@H](Cc2ccccc2)NC(=O)[C@H]([C@@H](C)CC)N2C(=O)c3ccc(C)cc3C2=O)CC1)N1C(=O)c2ccc(C)cc2C1=O` returned an IC50 of 3.11 µM. Also, the inhibition in series [1] was over 50%; in [3], over 50%; in [4], “Dose-dependent effect”; in series [6] it was “Dose-dependent effect”. At Plasmepsin 4, the Ki turned out to be 0.841 µM.

In the series with Plasmodium falciparum, `C[C@H](N)C(=O)NC(Cc1ccccc1)C(O)CN1CCN(C[C@@H](O)[C@H](Cc2ccccc2)NC(=O)[C@H](C)N)CC1` (single isomer, unassigned) had a concentration for half-maximal inhibition (IC50) of 6.98 µM.

`Cc1ccc2c(c1)C(=O)N([C@H](C(=O)NC(Cc1ccccc1)C(O)CN1CCN(C[C@@H](O)[C@H](Cc3ccccc3)NC(=O)[C@H](C(C)C)N3C(=O)c4ccc(C)cc4C3=O)CC1)C(C)C)C2=O` (single isomer, unassigned): half-maximal inhibition in the series with Plasmodium falciparum (IC50) was put at 2.26 µM.

For `CC(C)[C@H](NC(=O)OC(C)(C)C)C(=O)N[C@@H](Cc1ccccc1)[C@H](O)CN1CCN(C[C@H](O)[C@@H](Cc2ccccc2)NC(=O)[C@@H](NC(=O)OC(C)(C)C)C(C)C)CC1`, in the series on Plasmodium falciparum, the IC50 was found to be 4.38 µM.

In turn, `C[C@@H](C(=O)NC(Cc1ccccc1)C(O)CN1CCN(C[C@@H](O)[C@H](Cc2ccccc2)NC(=O)[C@H](C)N2C(=O)c3ccccc3C2=O)CC1)N1C(=O)c2ccccc2C1=O` (single isomer, unassigned) yielded an IC50 with Plasmodium falciparum of 7.6 µM.

`Cc1ccc2c(c1)C(=O)N([C@@H](C)C(=O)NC(Cc1ccccc1)C(O)CN1CCN(C[C@@H](O)[C@H](Cc3ccccc3)NC(=O)[C@H](C)N3C(=O)c4ccc(C)cc4C3=O)CC1)C2=O` (single isomer, unassigned) registered a half-maximal inhibitory concentration (IC50) with Plasmodium falciparum of 19 µM.

In turn, `O=C(CN1C(=O)c2ccccc2C1=O)NC(Cc1ccccc1)C(O)CN1CCN(C[C@@H](O)[C@H](Cc2ccccc2)NC(=O)CN2C(=O)c3ccccc3C2=O)CC1` (single isomer, unassigned) came in with an IC50 with Plasmodium falciparum of 20.3 µM.

The molecule `C[C@@H]1CC[C@H]2[C@@H](C)C(=O)O[C@@H]3O[C@@]4(C)CC[C@@H]1[C@]32OO4` [ARTEMISININ] came in with a 50% inhibitory concentration (IC50) in the series with Plasmodium falciparum of 0.074 µM.

In turn, `N[C@@H](Cc1ccccc1)[C@H](O)CN1CCN(C[C@@H](O)[C@@H](N)Cc2ccccc2)CC1` yielded an IC50 with Plasmodium falciparum of 3.47 µM.

For the molecule `CC(C)[C@H](N)C(=O)NC(Cc1ccccc1)C(O)CN1CCN(C[C@@H](O)[C@H](Cc2ccccc2)NC(=O)[C@@H](N)C(C)C)CC1` (single isomer, unassigned), 2.72 µM corresponded to half-maximal inhibition in the series with Plasmodium falciparum (IC50).

As for `CC(C)(C)OC(=O)NCC(=O)NC(Cc1ccccc1)C(O)CN1CCN(C[C@@H](O)[C@H](Cc2ccccc2)NC(=O)CNC(=O)OC(C)(C)C)CC1` (single isomer, unassigned), the IC50 with Plasmodium falciparum stood at 8.6 µM.

On to `Cc1ccc2c(c1)C(=O)N(CC(=O)N[C@@H](Cc1ccccc1)[C@H](O)CN1CCN(C[C@H](O)[C@@H](Cc3ccccc3)NC(=O)CN3C(=O)c4ccc(C)cc4C3=O)CC1)C2=O`, for which, in the series with Plasmodium falciparum, the IC50 turned out to be 10.8 µM. Besides, the inhibition in series [1] is over 50%; in [3], over 50%; in series [4] it was “Dose-dependent effect”; in [6] it was “Dose-dependent effect”. The Ki on Plasmepsin 4 came to 3.35 µM.

`CC[C@H](C)[C@H](N)C(=O)N[C@@H](Cc1ccccc1)[C@H](O)CN1CCN(C[C@@H](O)[C@H](Cc2ccccc2)NC(=O)[C@@H](N)[C@@H](C)CC)CC1`: the IC50 in the series on Plasmodium falciparum is 1.35 µM; in the series on HepG2, 125 µM; with Vero, over 156 µM. Further, the selectivity ratio in series [2] and in series [5] was over 10 each time.
